In patent EP2402020B1, “Pharmaceutical composition comprising extracts of Bupleurum krylovianum for use in the treatment of arthritis and rheumatoid arthritis” (Industrial Technology Research Institute, priority 2010, dated 2012):
Converted amounts (≈) assume the structure as drawn. Values belong to the compound of their own block, whether it stands above or below them.

Experiments:
IL-6 [1] = assay: IL-6 excretion by LPS-stimulated, PMA-activated U937 cells (ELISA); type: cell-based, human; details: activated U937, 30 minutes preincubation, LPS stimulation 16-18 hours, supernatant ELISA
Protocol: The cell line, U937, was cultured like Example 13. The activated U937 was /s then seeded in a 96-well plate in a concentration of 1.6×10^5 cell/well. The wells were added 6.3 µg/ml, […], 25 µg/ml and 50 µg/ml of kaerophyllin and 3.8 µg/ml, 7.5 µg/ml, 15 µg/ml and 30 µg/ml of isokaerphyllin and 10 µl of buffer, respectively. Each well was adjusted to a final volume of 190 µl. The plate was put under 37°C for 30 minutes. Each well was added 10µl of 20 µg/ml LPS to stimulate cells. After 16-18 hours under 37°C, the plate was centrifuged to collect the supernatants.
The amount of IL-6 in the supernatant was measured by ELISA (R&D System®) based on the control (DMSO). Meanwhile, the cell viability was measured by MTT assay (Sigma).

TNF-α [2] = assay: TNF-α excretion by LPS-stimulated, PMA-activated U937 cells (ELISA); type: cell-based, human; details: activated U937, 30 minutes preincubation, LPS stimulation 4 hours, supernatant ELISA
Protocol: The cell line, U937 (human monocyte cell line), was incubated in RPMI medium containing 50 ng/ml PMA (phorbol 12-myristate 13-acetate) (Sigma) and 10% fetal bovine serum (Moor et. al., Roswell Park Memorial Institute) for 24 hours. The cell line was then moved to the RPMI medium without PMA for further 48 hours. The activated U937 was seeded into a 96-well plate in a concentration of 1.6×10^5 cell/well. The wells were added 12.5 µg/ml, 25 µg/ml, 50 µg/ml and 100 µg/ml of kaerophyllin and 1 µg/ml, 3 µg/ml, 10 µg/ml and 30 µg/ml of isokaerphyllin and 10 µl of buffer, respectively. Each well was adjusted to a final volume of 190 µl. The plate was reacted under 37°C for 30 minutes. Each well was added 10 µl of 20 µg/ml LPS to stimulate cells. After 4 hours under 37°C, the plate was centrifuged to collect the supernatants.
The amount of TNF-α in the supernatant was measured by ELISA (R&D System®) based on the control (DMSO). Meanwhile, the cell viability was measured by MTT assay (Sigma).

TNF-α [3] = assay: TNBS enteritis mouse model: TNF-α in colon infusion; type: in vivo, BABL/c mice; details: 0.6mg/kg fed + 1.75mg of TNBS into the colon; colon infusion after 48 hours; negative value = enhanced excretion
Source text: (§1) The BABL/c mice were categorized into 4 groups. Each group had 6 […].

IL-6 [4] = assay: TNBS enteritis mouse model: IL-6 in colon infusion; type: in vivo, BABL/c mice; details: 0.6mg/kg fed + 1.75mg of TNBS into the colon; colon infusion after 48 hours; negative value = enhanced excretion
Source text: as §1

[5] = tested on: carrageenan induced hindpaw edema; assay: Carrageenan induced hindpaw edema in a rat model (plethysmometer); type: in vivo, Long-Evan rats; details: 3 mg/kg fed 1 hour before carrageenan (positive control)
Protocol: Long-Evan rats were fed with the extract (a) in Example 5 (i) in an amount of 250mg/kg, 500 mg/kg, 1000mg/kg, respectively. The positive control was fed with 3mg/kg of indomethacin (NSAID). The negative control was fed with 10ml/kg of 2% Tween 80 as a carrier After 1 hour, the rats were injected 0.1ml of 1% carrageenan on the left hindpaw. The volume of the rat's left hindpaw was measured by plethysmometer (Stoelting) at the 0, 1.5th, and 3rd hour after injection. The inhibition was calculated by the formula :
Inhibition (%)=(Nt-Nv)/Nv × 100
In the formula, Nt represents the left hindpaw volume of the rat fed with the ethanol extract; Nv represents the left hindpaw of the rat fed with the carrier.

IC50 (IL-6 [1]; Homo sapiens, U-937, read-out: IC50 value (inhibition of the excretion of IL-6)): 13 ± 2 µg/mL (≈ 35.3 µM)
IC50 (TNF-α [2]; Homo sapiens, U-937, read-out: IC50 value (inhibition of the excretion of TNF-α)): 44 ± 5 µg/mL (≈ 119 µM)
Compound: COc1ccc(/C=C2/C(=O)OC[C@@H]2Cc2ccc3c(c2)OCO3)cc1OC [kaerophyllin, trans-(3,4-dimethoxybenzylidene)-β-(3,4-methylenedioxylbenzyl)-γ-butyrolactone]

Compound: cis-(3,4-dimethoxybenzylidene)-β-(3,4-methylenedioxylbenzyl)-γ-butyrolactone [isokaerophyllin]
IC50 value (inhibition of the excretion of IL-6) (IL-6 [1]): 24 ± 6 µg/mL
IC50 value (inhibition of the excretion of TNF-α) (TNF-α [2]): 18 ± 4 µg/mL

Compound: C[C@@H]1C[C@H]2[C@@H]3CCC4=CC(=O)C=C[C@]4(C)[C@@]3(F)[C@@H](O)C[C@]2(C)[C@@]1(O)C(=O)CO [DEX, dexamethasone]
Inhibition of TNF-α(%) (TNF-α [3]): 9%
Inhibition of IL-6 (%) (IL-6 [4]): -55%

Compound: COc1ccc2c(c1)c(CC(=O)O)c(C)n2C(=O)c1ccc(Cl)cc1 [indomethacin]
Inhibition at 0 hour (%) ([5]; left hindpaw volume at 0 hour): 0%
Inhibition at the 1.5th hour (%) ([5]; left hindpaw volume at 1.5th hour): 21%
Inhibition at the 3rd hour (%) ([5]; left hindpaw volume at 3rd hour): 52%
